Assay [1] has as its system ceramide production in rat primary astrocytes. The assay is described as follows: Degradation of sphingomyelin to ceramide (DAG kinase assay, HPTLC) in rat primary astrocytes. In kind it is cell-based. How it is done: Lipid extraction Approximately 1.0×10^6 cells were exposed to different cytokines in the presence or absence of antioxidants for different periods and lipids were extracted according to the methods described by Welsh (1996).
Quantification of sphingomyelin by HPTLC and densitometry Sphingomyelin was separated from total lipid extracts by HPTLC (LPK-plates from Whatman Labsales, USA) as described (Ganser et al., 1988) for phospholipids with the modification, that the plate was overrun for 30 min during its development and was dried overnight in vacuum desicator. Sphingomyelin was quantitated by densitometric scanning using Imaging Densitometer (Model GS-670; Bio-Rad, USA) and software provided with the instrument by the manufacturer.
Quantification of ceramide levels by diacylglycerol kinase assay Ceramide content was quantified essentially according to Priess et al. using diacylglycerol (DAG) kinase and [γ-^32P]ATP (Priess et al., 1986). Briefly, dried lipids were solubilized in 20 μl of an octyl β-D-glucoside/cardiolipin solution (7.5% octyl β-D-glucoside, 5 mM cardiolipin in 1 mM DTPA) by sonication in a sonicator bath. […] The labeled ceramide 1-phosphate was resolved with a solvent system consisting of methyl acetate: n-propanol:chloroform:methanol:0.25% KCl in water:acetic-acid (100:100:100:40:36:2). A standard sample of ceramide was phosphorylated under identical conditions and developed in parallel. […] Quantification of ceramide 1-phosphate was carried out by autoradiography and densitometric scanning using Imaging Densitometer (Model GS-670; Bio-Rad, USA). Values are expressed either as arbitrary units (absorbance) or as percent change.
Lipid Extraction Approximately 1.0×10^6 cells were exposed to different cytokines in the presence or absence of antioxidants for different periods, and lipids were extracted according to the methods described by Welsh (1996).
Quantification of Sphingomyelin by High Performance TLC and Densitometry Sphingomyelin was separated from total lipid extracts by high performance TLC (LHPK plates from Whatman) as described by Ganser et al. (1988) for phospholipids with the following modification: the plate was overrun for 30 min during its development and was dried overnight in vacuum desiccator. Sphingomyelin was quantitated by densitometric scanning using Imaging Densitometer (model GS-670; Bio-Rad), and software was provided with the instrument by the manufacturer.
Quantification of Ceramide Levels by Diacylglycerol Kinase Assay Ceramide content was quantified essentially according to Priess et al. (1986) using diacylglycerol (DAG) kinase and [γ-^32P]ATP. Briefly, dried lipids were solubilized in 20 μl of an octyl β-D-glucoside/cardiolipin solution (7.5% octyl β-D-glucoside, 5 mM cardiolipin in 1 mM DTPA) by sonication in a sonicator bath. […] The labeled ceramide-1-phosphate was resolved with a solvent system consisting of methyl acetate:n-propyl alcohol:chloroform:methanol, 0.25% KCl in water:acetic acid (100:100:100:40:36:2). A standard sample of ceramide was phosphorylated under identical conditions and developed in parallel. […] Quantification of ceramide-1-phosphate was carried out by autoradiography and densitometric scanning using Imaging Densitometer (model GS-670; Bio-Rad). Values are expressed either as arbitrary units (absorbance) or as percent change.

Assay [2] has as its system cultured skin fibroblasts of X-ALD. Description: β-oxidation of lignoceric acid in cultured skin fibroblasts of X-ALD. Type of assay: cell-based, human. The note with it: etomoxir, inhibitor of mitochondrial β-oxidation.
The test system of the next assay is iNOS. The assay is described as follows: Expression of iNOS protein (immunoblot) and mRNA (Northern) in rat primary astrocytes. In kind it is cell-based. How it is done:
Immunoblot analysis for iNOS Following 24 h incubation in the presence or absence of stimuli by different cytokines or LPS, macrophages were scraped off, washed with Hank's buffer, and homogenized in 50 mM Tris-HCl (pH 7.4) containing protease inhibitors ([…] PMSF, 5 μg/ml aprotinin, 5 μg/ml pepstatin A, and 5 μg/ml leupeptin). After electrophoresis the proteins were transferred onto a nitrocellulose membrane, and the iNOS band was visualized by immunoblotting with antibodies against mouse macrophage iNOS and [^125I]-labeled protein A (Singh et al., 1988).
RNA isolation, Northern blot analysis, and reverse-transcriptase coupled polymerase chain reaction (RT-PCR) Stimulated peritoneal macrophages were taken out from culture dishes directly by adding Ultraspec-II RNA reagent (Biotecx Laboratories Inc.) and total RNA was isolated according to the manufacturer's protocol. For northern blot analyses, 20 μg of total RNA was electrophoresed on 1.2% denaturing formaldehyde-agarose gels, electrotransferred to Hybond-Nylon Membrane (Amersham) and hybridized at 68° C. with ^32P-labeled cDNA probe using Express Hyb hybridization solution (Clontech) as described by the manufacturer. […]; After hybridization filters were washed two to three times in solution I (2×SSC, 0.05% SDS) for 1 h at room temperature followed by solution II (0.1×SSC, 0.1% SDS) at 50° C. for another hour. The membranes were then dried and exposed to X-ray film (Kodak). The same filters were stripped and rehybridized with probes for GAPDH. The relative mRNA content for iNOS was measured after scanning the bands with a Biorad (Model GS-670) imaging densitometer.
Immunoblot analysis for iNOS Following 24 h incubation in the presence or absence of different stimuli, cells were scraped off, washed with Hank's buffer, and homogenized in 50 mM Tris-HCl (pH 7.4) containing protease inhibitors. After electrophoresis the proteins were transferred onto a nitrocellulose membrane, and the iNOS band was visualized by immunoblotting with antibodies against mouse macrophage iNOS and [^125I]-labeled protein A.
RNA isolation and Northern blot analysis Cells were taken out from culture dishes directly by adding Ultraspec-II RNA reagent (Biotecx Laboratories Inc.) and total RNA was isolated according to the manufacturer's protocol. For Northern blot analyses, 20 μg of total RNA was electrophoresed on 1.2% denaturing formaldehyde-agarose gels, electrotransferred to Hybond-Nylon Membrane (Amersham) and hybridized at 68° C. with ^32P-labeled cDNA probe using Express Hyb hybridization solution (Clontech) as described by the manufacturer. […]; After hybridization filters were washed two or three times in solution I (2×SSC, 0.05% SDS) for one hour at room temperature followed by solution II (0.1×SSC, 0.1% SDS) at 50° C. for another hour. The membranes were then dried and exposed with X-ray films (Kodak). The same filters were stripped and rehybridized with probes for GAPDH. The relative mRNA content for iNOS was measured after scanning the bands with a Biorad (Model GS-670) imaging densitometer.
Immunoblot analysis for iNOS After a 24 h incubation in the presence or absence of different stimuli, cells were scraped off, washed with Hank's buffer, and homogenized in 50 mM Tris-HCl (pH 7.4) containing protease inhibitors (1 mM PMSF, 5 μg/ml aprotinin, 5 μg/ml pepstatin A, and 5 μg/ml leupeptin). After electrophoresis the proteins were transferred onto a nitrocellulose membrane, and the iNOS band was visualized by immunoblotting with antibodies against mouse macrophage iNOS and [^125I]-labeled protein A.
RNA isolation and Northern blot analysis Cells were taken out from culture dishes directly by adding Ultraspec-II RNA reagent (Biotecx Laboratories Inc., Houston, Tex.), and total RNA was isolated according to the manufacturer's protocol. […]

Assay [3] has as its system NO production in rat resident macrophages. Description: LPS-/cytokine-induced NO production (nitrite) in rat resident peritoneal macrophages. In kind it is cell-based. The method, then:
Isolation of Rat Macrophages and Induction of NO Production Resident macrophages were obtained from rats by peritoneal lavage with sterile RPMI 1640 medium containing 1% fetal bovine serum and 100 μg/ml gentamicin (Wang et al., 1995). Cells were washed three times with RPMI 1640 at 4° C. All cell cultures were maintained at 37° C. in a humidified incubator containing 5% CO2 in air. Macrophages, at a concentration of 2×10^6/ml in RPMI 1640 medium containing L-glutamine and gentamicin, were added in volumes of 800 μl to a 35 mm plate. After 1 h, nonadherent cells were removed by washing and 800 μl of serum-free RPMI 1640 medium with various stimuli were added to the adherent cells. After 24 h incubation in 5% CO2 in air at 37° C., the culture supernatants were transferred to measure NO production (Geng et al., 1995; Wang et al., 1995).
Isolation of rat macrophages and induction of NO production Resident macrophages were obtained from rat by peritoneal lavage with sterile RPMI 1640 medium containing 1% fetal bovine serum and 100 μg/ml gentamicin as described herein. Cells were washed three times with RPMI 1640 at 4° C. All cell cultures were maintained at 37° C. in a humidified incubator containing 5% CO2 in air. Macrophages at a concentration of 2×10^6/ml in RPMI 1640 medium containing L-glutamine and gentamicin were added in volumes of 800 μl to a 35 mm plate. After 1 h, nonadherent cells were removed by washing and 800 μl of serum-free RPMI 1640 medium with various stimuli were added to the adherent cells. After incubation in 5% CO2 in air at 37° C., culture supernatants were transferred to measure NO production.
Isolation of rat macrophages and induction of NO production Resident macrophages were obtained from rat by peritoneal lavage with sterile RPMI 1640 medium containing 1% FBS and 100 μg/ml gentamicin. Cells were washed three times with RPMI 1640 at 4° C., and were maintained at 37° C. in a humidified incubator containing 5% CO2 in air. Macrophages at a concentration of […] in RPMI 1640 medium containing L-glutamine and gentamicin were added in volumes of 800 μl to a 35-mm plate. After 1 h, nonadherent cells were removed by washing, and 800 μl of serum-free RPMI 1640 medium with various stimuli was added to the adherent cells. After 24 h the culture supernatants were transferred to measure NO production.
Protein was measured (Bradford, 1976).

[4] abbreviates: 100 μM mevalonate, 200 μM farnesyl pyrophosphate, 10 μM ubiquinone or cholesterol.

“Also recorded” adds a separate entry of the source. Where two headings read alike, the source gives them in different places.

`Nc1nc[nH]n1` [ATZ, aminotriazole]: in assay [1], the “increase in ceramide production” value is “more than 5 fold”.

Turning to `CCOC(=O)[C@@]1(CCCCCCOc2ccc(Cl)cc2)CO1` [Etomoxir], the “effect on stimulated lignoceric acid β-oxidation” value in assay [2] is “had no effect on cAMP-mediated stimulation of lignoceric acid β-oxidation; also recorded: had no effect on lovastatin- or NaPA-mediated stimulation of lignoceric acid β-oxidation”.

As to `CC(C)=CCC/C(C)=C/CC/C(C)=C/COP(=O)(O)OP(=O)(O)O` [FPP, farnesyl pyrophosphate], the “rescue of the inhibition of iNOS expression and NF-kβ activation by lovastatin / NaPA” value (“rescue of the inhibition … by lovastatin / NaPA” below) with iNOS is given as “substantially reversed the inhibitory effect of lovastatin”. Turning to `OO` [H2O2, hydrogen peroxide], the “increase in ceramide production” value in assay [1] was “about 7 fold”. Take `CNC(=N)NCCC[C@H](N)C(=O)O` [L-NMA, N^G-methyl-L-arginine]: in assay [3] (LPS 1.0 μg/ml, 24 h, NAC 20 mM 2 h before LPS, NMA 0.1 mM, arginase 100 units/ml with LPS), the Nitrite is reported as 15.8 ± 2.2 nmol/mg Protein^24h. In assay [3] (of LPS (1.0 μg/ml)-induced nitrite, NAC 20 mM 2 h before, NMA 0.1 mM, arginase 100 units/ml with LPS), the “Inhibition (%)” value came out at 87%.

`CC(=O)O` [acetate]: in assay [1], the “degradation of sphingomyelin to ceramide / ceramide production” value was “had no effect on the degradation of SM to ceramide”. In the case of `CCCCS(=N)(=O)CCC(N)C(=O)O` [buthione (S,R)-sulfoximine], the “degradation of sphingomyelin to ceramide / ceramide production” value in assay [1] was “also decreased the level of GSH and induced the production of ceramide”. Consider `C[C@@]12C(=O)OC(=O)[C@]1(C)[C@H]1CC[C@@H]2O1` [cantharidin], for which the “LPS-mediated induction of iNOS protein and mRNA” value in the assay on iNOS (LPS 1.0 μg/ml) was “enhanced the LPS-mediated induction of iNOS protein and mRNA”. Also, the “LPS-induced NO production” value in assay [3] (LPS 1.0 μg/ml, 24 h) is “inhibited the LPS-induced NO production in rat peritoneal macrophages”. For the compound `CC(C)CCC[C@@H](C)[C@H]1CC[C@H]2[C@@H]3CC=C4C[C@@H](O)CC[C@]4(C)[C@H]3CC[C@]12C` [cholesterol], in the assay on iNOS (setting [4]), the “rescue of the inhibition … by lovastatin / NaPA” value was “did not prevent the inhibitory effect of lovastatin and NaPA”. With `CC(O)(CCO)CC(=O)O` (centres unmarked) [mevalonate], the “rescue of the inhibition … by lovastatin / NaPA” value in the assay on iNOS is on record as “substantially reversed the inhibitory effect of lovastatin”. For the compound `COC1=C(OC)C(=O)C(C/C=C(\C)CC/C=C(\C)CC/C=C(\C)CC/C=C(\C)CC/C=C(\C)CC/C=C(\C)CC/C=C(\C)CC/C=C(\C)CC/C=C(\C)CCC=C(C)C)=C(C)C1=O` [ubiquinone], the “rescue of the inhibition … by lovastatin / NaPA” value in the assay with iNOS (setting [4]) is “did not prevent the inhibitory effect of lovastatin and NaPA”.

For Microcystin, the “LPS-mediated induction of iNOS protein and mRNA” value with iNOS is “enhanced the LPS-mediated induction of iNOS protein and mRNA”.
